One data set deals with T1, ThnM3.
T1 construct: methyltransferase of the tetrahydroxynaphthalene (THN) gene cluster
Description: O-methylation assay, HPLC, nonlinear Michaelis-Menten fit. In kind it is biochemical, Nocardia sp. CS682. Particulars: 50 mM Tris, pH 8 in methods but pH 7.5 in Figure 5 legend, 5 µg ThnM3.

The next data set relates to A549. Description: cells. Also on record: species or system Huh7, HeLa, U87MG, HaCaT; MTT colorimetric cell growth / viability assay. The conditions noted are these: Homo sapiens, A549, 72 h; read-out: NOC-IBR1 IC50. As for the experimental part:
(§1) Lung cancer cells (A549), liver cancer cells (Huh7), cervical cancer cells (HeLa), brain cancer cells (U87MG), and a normal cell line (human keratinocyte cell line (HaCaT)) were acquired from the Korean Cell Line Bank (Seoul, Republic of Korea). Ten percent fetal bovine serum (FBS) was added to Dulbecco’s modified Eagle’s medium (DMEM) to culture the HeLa A549 cells. Similarly, Huh7 cells were grown in DMEM obtained from Corning Cellgro Manassas, VA, USA. Glioblastoma U87MG cells were cultured in a minimum essential medium (MEM) supplemented with 10% FBS. DMEM supplemented with 10% FBS, 100 µg/mL streptomycin, and 100 µg/mL benzylpenicillin was used to grow HaCaT cell lines. Each cell line was kept in an incubator with 5% CO2 that was humidified at 37 °C (Thermo Scientific, Vantaa, Finland). For the cell growth assays, various cancer cells at 2 × 10^3 cells/well were plated in 96-well culture plates. NOC-IBR1 and NOC-IBR2 were added to each well at various concentrations (200 μM, 100 μM, 50 μM, 25 μM, 12.5 μM, 6.25 μM, 3.16 μM, 1.56 μM, and 0.78 μM), and the cells were incubated for 72 h. A 3-(4,5-dimethylthiazol-2-yl)-2,5-diphenyltetrazolium bromide (MTT) colorimetric assay was used to measure cell growth (cell viability).  Figure 4 The cytotoxicity of NOC-IBR1 and NOC-IBR2 was assessed across different cell lines. Each cell line was maintained in a 5% CO2 humidified incubator at 37 °C. The cells were seeded at a density of 2 × 10^3 cells/well in 96-well culture plates for the cell growth assay. Various concentrations of the compounds (200 μM, 100 μM, 50 μM, 25 μM, 12.5 μM, 6.25 μM, 3.16 μM, 1.56 μM, and 0.78 μM) were added to each well, and the cells were incubated for 72 h. Cell growth was measured using the MTT colorimetric assay. NOC-IBR1 and NOC-IBR2 were further subjected to cytotoxicity assays against four different cancer cell lines using a colorimetric test of 3-(4,5-dimethylthiazol-2-yl)-2,5-diphenyltetrazolium bromide (MTT) (Figure 4). […] Similarly, the IC50 values of doxorubicin in the above cell lines were also calculated (Table S4). […] These findings further indicate that NOC-IBR1 and NOC-IBR2 substantially reduce the viability of A549, Huh7, HeLa, and U87MG cells in a dose-dependent manner. This is the first report on the cytotoxicity of these two compounds against cancer cell lines.

For a further data set, the system named is HeLa. Nature of the data set: cells. Also on record: species or system A549, Huh7, U87MG, HaCaT; MTT colorimetric cell growth / viability assay. The conditions noted are these: Homo sapiens, HeLa, 72 h; read-out: NOC-IBR1 IC50. As for the experimental part: as §1
For the next data set, the system named is Huh7. Nature of the data set: cells. The conditions noted are these: Homo sapiens, Huh-7, 72 h; read-out: NOC-IBR1 IC50. Also on record: species or system A549, HeLa, U87MG, HaCaT; MTT colorimetric cell growth / viability assay. As for the experimental part:
as §1

Another data set has as its system U87MG. Description: cells. On the set-up: species or system A549, Huh7, HeLa, HaCaT; MTT colorimetric cell growth / viability assay. Particulars: Homo sapiens, U-87 MG, 72 h; read-out: NOC-IBR1 IC50. The protocol:
as §1

A short description of a further data set: in vitro. On the set-up: species or system A549, Huh7, HeLa, U87MG; MTT colorimetric cell growth / viability assay. The conditions noted are these: human, hacat cells. As for the experimental part: Lung cancer cells (A549), liver cancer cells (Huh7), cervical cancer cells (HeLa), brain cancer cells (U87MG), and a normal cell line (human keratinocyte cell line (HaCaT)) were acquired from the Korean Cell Line Bank (Seoul, Republic of Korea). Ten percent fetal bovine serum (FBS) was added to Dulbecco’s modified Eagle’s medium (DMEM) to culture the HeLa A549 cells. Similarly, Huh7 cells were grown in DMEM obtained from Corning Cellgro Manassas, VA, USA. Glioblastoma U87MG cells were cultured in a minimum essential medium (MEM) supplemented with 10% FBS. DMEM supplemented with 10% FBS, 100 µg/mL streptomycin, and 100 µg/mL benzylpenicillin was used to grow HaCaT cell lines. Each cell line was kept in an incubator with 5% CO2 that was humidified at 37 °C (Thermo Scientific, Vantaa, Finland). For the cell growth assays, various cancer cells at 2 × 10^3 cells/well were plated in 96-well culture plates. NOC-IBR1 and NOC-IBR2 were added to each well at various concentrations (200 μM, 100 μM, 50 μM, 25 μM, 12.5 μM, 6.25 μM, 3.16 μM, 1.56 μM, and 0.78 μM), and the cells were incubated for 72 h. […] Figure 4 The cytotoxicity of NOC-IBR1 and NOC-IBR2 was assessed across different cell lines. […] Cell growth was measured using the MTT colorimetric assay. […] Similarly, the IC50 values of doxorubicin in the above cell lines were also calculated (Table S4). […]

SMILES strings stand for the structures. Read-outs that look alike come from different tables or passages of the source.

Take `COc1cc2c(c(O)c1O)C(=O)c1c(coc1C)C2` [NOC-IBR1, 6-methoxy-7,8-dihydroxy-1-methylnaphtho [2,3-c] furan-9-one]: the Km (commonly the substrate concentration at which the rate is half of its maximum) in the data set on ThnM3 (2 mM SAM (saturating), read-out: apparent Km) turned out to be 15.6 ± 1.75 µM. Moreover, the IC50 (as a rule, the concentration at which inhibition is half-maximal) in the data set with A549 came to 200 µM; with HeLa, 61.1 µM; in the data set with Huh7, 44.4 µM; in the data set on U87MG, 120 µM. In addition, in the data set “in vitro” (read-out: NOC-IBR1 IC50 (μM), normal cells), the CC50 at 72 h is over 200 µM.
With `C[S+](CC[C@H](N)C(=O)O)C[C@H]1O[C@@H](n2cnc3c(N)ncnc32)[C@H](O)[C@@H]1O` (some centres unmarked) [SAM], the Km in the data set with ThnM3 (methyl donor, 100 µM NOC-IBR1 (near-saturating), read-out: Km) worked out at 39.7 ± 6.08 µM.
For `COc1cccc2c1C(=O)c1c(O)c3c(c(O)c1C2=O)C[C@@](O)(C(=O)CO)C[C@@H]3O[C@H]1C[C@H](N)[C@H](O)[C@H](C)O1` [Doxorubicin], the CC50 at 72 h in “in vitro” (read-out: Doxorubicin IC50 (μM), normal cells) was determined as 0.681 µM.
